{"source": "patent US20210024542A1", "about": "(Torcept Therapeutics, Inc., priority 2018, published 2021)", "key": {"[1]": {"test_system": "A101D", "assay": "OncoPanel cell proliferation assay, A101D", "format": "cell-based, human", "conditions": "for Cell Count Activity Area: scale 0-10", "protocol": "(§1) Cells were grown in RPMI 1640, 10% FBS, 2 mM L-alanyl-L-glutamine, 1 mM Na pyruvate, or a special medium. Cells were seeded into 384-well plates and incubated in a humidified atmosphere of 5% CO2 at 37° C. Compounds were added the day following cell seeding. At the same time, a time zero untreated cell plate was generated. After a 3-day incubation period, cells were fixed and stained to allow fluorescence imaging of nuclei. Compounds (1 mM stock solutions) were serially diluted in half-log steps from the highest test concentration ([…]), and assayed over 10 concentrations with a maximum assay concentration of 0.1% DMSO. Automated fluorescence microscopy was carried out using a Molecular Devices ImageXpress Micro XL high-content imager, and images were collected with a 4× objective. 16-bit TIFF images were acquired and analyzed with MetaXpress 5.1.0.41 software.\n(§2) Cell proliferation was measured by the fluorescence intensity of an incorporated nuclear dye. The output is referred to as the relative cell count, where the measured nuclear intensity is transformed to percent of control (POC) using the following formula: […]\n(§3) Cellular response parameters were calculated using nonlinear regression to a sigmoidal single-site dose response model:\n(§4) Where y is a response measured at concentration x, A and B are the lower and upper limits of the response, C is the concentration at the response midpoint (EC50), and D is the Hill Slope (Ref. 1).\n(§5) EC50 is the test compound concentration at the curve inflection point or half the effective response (parameter C of the fitted curve solution). GI50 is the concentration needed to reduce the observed growth by half (midway between the curve maximum and the time zero value). “Cell Count Activity Area” is an estimate of the integrated area above the curve (Barretina, et al. The Cancer Cell Line Encyclopedia enables predictive modelling of anticancer drug sensitivity. Nature 483: 603-607). […] In rare instances, values <0 or >10 may be observed. […] Curve-fitting, calculations, and report generation was performed using a custom data reduction engine and MathIQ based software (AIM)."}, "[2]": {"test_system": "DMS114", "assay": "OncoPanel cell proliferation assay, DMS114", "format": "cell-based, human", "protocol": "as §1, with “Cells” for “Cells were grown in RPMI 1640, 10% FBS, 2 mM L-alanyl-L-glutamine, 1 mM Na pyruvate, or a special medium. Cells”\nas §2, §3, §4\nGI50 is the concentration needed to reduce the observed growth by half (midway between the curve maximum and the time zero value). […] In rare instances, values <0 or >10 may be observed. […] Curve-fitting, calculations, and report generation was performed using a custom data reduction engine and MathIQ based software (AIM)."}, "[3]": {"test_system": "MES-SA", "assay": "OncoPanel cell proliferation assay, MES-SA", "format": "cell-based, human", "conditions": "for Cell Count Activity Area: scale 0-10", "protocol": "as §1, §2, §3, §4, §5"}, "[4]": {"test_system": "SK-N-AS", "assay": "OncoPanel cell proliferation assay, SK-N-AS", "format": "cell-based, human", "conditions": "for Cell Count Activity Area: scale 0-10", "protocol": "as §1, §2, §3, §4, §5"}, "[5]": {"test_system": "SNU-C2B", "assay": "OncoPanel cell proliferation assay, SNU-C2B", "format": "cell-based, human", "conditions": "for Cell Count Activity Area: scale 0-10", "protocol": "as §1, §2, §3, §4, §5"}, "[6]": {"test_system": "ST486", "assay": "OncoPanel cell proliferation assay, ST486", "format": "cell-based, human", "conditions": "for Cell Count Activity Area: ST486, scale 0-10", "protocol": "as §1, §2, §3, §4, §5"}, "[7]": {"test_system": "T24", "assay": "OncoPanel cell proliferation assay, T24", "format": "cell-based, human", "conditions": "for Cell Count Activity Area: T24, scale 0-10", "protocol": "as §1, §2, §3, §4, §5"}, "[8]": {"test_system": "TF-1", "assay": "OncoPanel cell proliferation assay, TF-1", "format": "cell-based, human", "conditions": "for Cell Count Activity Area: TF-1, scale 0-10", "protocol": "as §1, §2, §3, §4, §5"}, "[9]": {"test_system": "PC-3", "assay": "OncoPanel cell proliferation assay, PC-3", "conditions": "for Cell Count Activity Area: PC-3, scale 0-10", "description": "(§6) Cells were seeded into 384-well plates and incubated in a humidified atmosphere of 5% CO2 at 37° C. Compounds were added the day following cell seeding. At the same time, a time zero untreated cell plate was generated. After a 3-day incubation period, cells were fixed and stained to allow fluorescence imaging of nuclei. Compounds (1 mM stock solutions) were serially diluted in half-log steps from the highest test concentration (1 micromol), and assayed over 10 concentrations with a maximum assay concentration of 0.1% DMSO. Automated fluorescence microscopy was carried out using a Molecular Devices ImageXpress Micro XL high-content imager, and images were collected with a 4× objective. 16-bit TIFF images were acquired and analyzed with MetaXpress 5.1.0.41 software."}, "[10]": {"test_system": "AsPC-1", "assay": "OncoPanel cell proliferation assay, AsPC-1", "conditions": "for Cell Count Activity Area: AsPC-1, scale 0-10", "description": "as §6"}, "[11]": {"test_system": "OVCAR3", "assay": "OncoPanel cell proliferation assay, OVCAR3", "conditions": "for Cell Count Activity Area: OVCAR3, scale 0-10", "description": "as §6"}, "[12]": {"test_system": "SHP-77", "assay": "OncoPanel cell proliferation assay, SHP-77", "conditions": "for Cell Count Activity Area: SHP-77, scale 0-10", "description": "as §6"}, "[13]": {"conditions": "Homo sapiens, 72 h, 3-day incubation, read-out: Cell Count IC50"}, "[14]": {"conditions": "Homo sapiens, 72 h, 3-day incubation, read-out: Cell Count EC50"}, "[15]": {"conditions": "Homo sapiens, 72 h, 3-day incubation, read-out: Cell Count GI50"}}, "note": "pEC50, pIC50: −log10 of the molar value."}
{"smiles": "CO[C@H]1C[C@@H]2CC[C@@H](C)[C@@](O)(O2)C(=O)C(=O)N2CCCC[C@H]2C(=O)O[C@H]([C@H](C)C[C@@H]2CC[C@@H](O)[C@H](OC)C2)CC(=O)[C@H](C)/C=C(\\C)[C@@H](O)[C@@H](OC)C(=O)[C@H](C)C[C@H](C)/C=C/C=C/C=C/1C", "note": "[Rapamycin, reference compound]", "values": [{"measurement": "pIC50", "setting": "[1]; [13]", "result": "< 6.00"}, {"measurement": "Cell Count Activity Area", "setting": "[1]", "result": 2.92}, {"measurement": "Cell Count Activity Area", "setting": "[2]; DMS114, scale 0-10", "result": 4.14}, {"measurement": "pIC50", "setting": "[2]; Homo sapiens, DMS-114, 72 h, DMS114, 3-day incubation, read-out: Cell Count IC50", "result": "< 6.00"}, {"measurement": "Cell Count Activity Area", "setting": "[3]", "result": 5.39}, {"measurement": "pIC50", "setting": "[4]; [13]", "result": "< 6.00"}, {"measurement": "Cell Count Activity Area", "setting": "[4]", "result": 3.58}, {"measurement": "pEC50", "setting": "[5]; [14]", "result": "< 6.00"}, {"measurement": "GI50", "setting": "[5]; [15]", "result": "> 1", "unit": "µM"}, {"measurement": "pIC50", "setting": "[5]; [13]", "result": "< 6.00"}, {"measurement": "Cell Count Activity Area", "setting": "[5]", "result": 1.99}, {"measurement": "pIC50", "setting": "[6]; Homo sapiens, 72 h, ST486, 3-day incubation, read-out: Cell Count IC50", "result": "< 6.00"}, {"measurement": "Cell Count Activity Area", "setting": "[6]", "result": 3.99}, {"measurement": "pIC50", "setting": "[7]; Homo sapiens, T-24, 72 h, T24, 3-day incubation, read-out: Cell Count IC50", "result": 8.68}, {"measurement": "Cell Count Activity Area", "setting": "[7]", "result": 4.39}, {"measurement": "pEC50", "setting": "[8]; Homo sapiens, 72 h, TF-1, 3-day incubation, read-out: Cell Count EC50", "result": "< 6.00"}, {"measurement": "GI50", "setting": "[8]; Homo sapiens, 72 h, TF-1, 3-day incubation, read-out: Cell Count GI50", "result": "> 1", "unit": "µM"}, {"measurement": "pIC50", "setting": "[8]; Homo sapiens, 72 h, TF-1, 3-day incubation, read-out: Cell Count IC50", "result": "< 6.00"}, {"measurement": "Cell Count Activity Area", "setting": "[8]", "result": 1.52}, {"measurement": "pEC50", "setting": "[9]; Homo sapiens, PC-3, 72 h, read-out: Cell Count EC50", "result": 9.64}, {"measurement": "pIC50", "setting": "[9]; Homo sapiens, PC-3, 72 h, read-out: Cell Count IC50", "result": "< 6.00"}, {"measurement": "Cell Count Activity Area", "setting": "[9]", "result": 3.57}, {"measurement": "Cell Count Activity Area", "setting": "[10]", "result": 1.48}, {"measurement": "pEC50", "setting": "[10]; Homo sapiens, ASPC1, 72 h, read-out: Cell Count EC50", "result": "< 6.00"}, {"measurement": "GI50", "setting": "[10]; Homo sapiens, ASPC1, 72 h, read-out: Cell Count GI50", "result": "> 1", "unit": "µM"}, {"measurement": "pIC50", "setting": "[10]; Homo sapiens, ASPC1, 72 h, read-out: Cell Count IC50", "result": "< 6.00"}, {"measurement": "pIC50", "setting": "[11]; Homo sapiens, OVCAR-3, 72 h, read-out: Cell Count IC50", "result": "< 6.00"}, {"measurement": "Cell Count Activity Area", "setting": "[11]", "result": 2.08}, {"measurement": "pEC50", "setting": "[12]; Homo sapiens, SHP77, 72 h, read-out: Cell Count EC50", "result": "< 6.00"}, {"measurement": "GI50", "setting": "[12]; Homo sapiens, SHP77, 72 h, read-out: Cell Count GI50", "result": "> 1", "unit": "µM"}, {"measurement": "pIC50", "setting": "[12]; Homo sapiens, SHP77, 72 h, read-out: Cell Count IC50", "result": "< 6.00"}, {"measurement": "Cell Count Activity Area", "setting": "[12]", "result": 1.13}]}
{"smiles": "CN[C@@H]1C[C@H]2O[C@@](C)([C@@H]1OC)n1c3ccccc3c3c4c(c5c6ccccc6n2c5c31)C(=O)NC4", "note": "[Staurosporine, reference compound]", "values": [{"measurement": "Cell Count Activity Area", "setting": "[1]", "result": 4.56}, {"measurement": "pEC50", "setting": "[2]; Homo sapiens, DMS-114, 72 h, DMS114, 3-day incubation, read-out: Cell Count EC50", "result": 7.68}, {"measurement": "GI50", "setting": "[3]; [15]", "result": 0.013, "unit": "µM"}, {"measurement": "Cell Count Activity Area", "setting": "[3]", "result": 2.80}, {"measurement": "pEC50", "setting": "[4]; [14]", "result": 8.77}, {"measurement": "Cell Count Activity Area", "setting": "[4]", "result": 4.83}, {"measurement": "Cell Count Activity Area", "setting": "[5]", "result": 3.80}, {"measurement": "Cell Count Activity Area", "setting": "[6]", "result": 4.89}, {"measurement": "Cell Count Activity Area", "setting": "[7]", "result": 5.96}, {"measurement": "Cell Count Activity Area", "setting": "[8]", "result": 3.31}, {"measurement": "Cell Count Activity Area", "setting": "[9]", "result": 4.67}, {"measurement": "Cell Count Activity Area", "setting": "[10]", "result": 3.28}, {"measurement": "Cell Count Activity Area", "setting": "[11]", "result": 3.41}, {"measurement": "Cell Count Activity Area", "setting": "[12]", "result": 3.16}]}
